We go through 18 compounds from patent US5602100A, “Dermorphin analogs having pharmacological activity” (priority 1988, dated 1997).

One may read the Ki as a dissociation constant, usually derived from enzyme kinetics or from competition with a known ligand. Higher therefore signals a looser hold on the target.

Non-standard residues stand in square brackets, D forms with d. Residues, ends and D or L forms follow the SMILES beside them. dNle = CCCC[C@@H](N)C(=O)O; dDab = NCC[C@@H](N)C(=O)O; dNva = CCC[C@@H](N)C(=O)O; Orn = NCCC[C@H](N)C(=O)O; Dab = NCC[C@H](N)C(=O)O

The target of one assay is T1, δ-opioid receptor (Rattus norvegicus, UniProt P33533).
T1 construct: displacement of the radioligands from the rat brain membrane preparations; from tissue; host or cells: rat brain membrane preparations
The assay is described as follows: biochemical. It is filed as binding.

A further assay relates to hot plate stimulus. As to the kind of experiment: Mouse hot plate test. It is filed as in vivo. As to the method: The mouse hot plate test is an assay which only detects centrally-mediated analgesic effects. This test was carried out using the protocol described in G. Woolfe and A. MacDonald, J. Pharmacol. Exp. Ther., 80, p. 300 ([…]).
Since most of the peptides of the invention were not potent centrally, it was impossible to determine an ED50 value. […] A result is considered insignificant if 30% of mice or lower have responded.
For orientation: Thermal pain tests record how soon the animal reacts.

For a further assay, the system named is PBQ-induced writhing. The assay is described as follows: Mouse writhing test (PBQ). The note with it: dose reducing the number of writhes by 50%. It is filed as in vivo. As to the method: The mouse writhing test detects both peripherally and centrally mediated analgesic effects. The test procedure is described in Siegmund et al., Proc. Soc. Exp. Biol. Med., 95, p. 729 (1957). In this test, a control group of albino mice was injected intraperitoneally with 0.3 ml/20 g body weight of a 0.02% solution of 2-phenyl-1,4-benzoquinone (PBQ). The writhing and contortional movements of the mice over the following 15 minutes were recorded. A second group of mice was given a dose of a synthetic dermorphin analog according to this invention, then allowed to wait a period of time before being administered the PBQ injection. The average number of writhes was then recorded and compared to the control group. The results of this test are expressed as the dosage of peptide that reduces the number of writhes by 50% at a given time interval (referred to as ED50).

The next assay addresses T2, μ-opioid receptor (Rattus norvegicus, UniProt P33535).
T2 construct: displacement of the radioligands from the rat brain membrane preparations; from tissue; host or cells: rat brain membrane preparations
As to the kind of experiment: biochemical. It is filed as binding.

T2 sequence (P33535 whole entry): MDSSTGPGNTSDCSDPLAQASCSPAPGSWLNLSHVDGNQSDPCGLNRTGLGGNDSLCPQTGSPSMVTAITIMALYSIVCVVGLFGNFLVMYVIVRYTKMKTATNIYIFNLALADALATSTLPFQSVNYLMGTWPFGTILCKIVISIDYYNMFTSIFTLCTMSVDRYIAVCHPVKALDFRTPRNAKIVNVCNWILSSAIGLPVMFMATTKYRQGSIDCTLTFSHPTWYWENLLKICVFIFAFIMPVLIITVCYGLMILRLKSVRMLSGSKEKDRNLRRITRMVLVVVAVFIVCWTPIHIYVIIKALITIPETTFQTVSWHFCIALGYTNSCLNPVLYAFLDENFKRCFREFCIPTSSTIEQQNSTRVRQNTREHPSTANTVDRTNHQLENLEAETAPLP
T1 sequence (P33533 whole entry): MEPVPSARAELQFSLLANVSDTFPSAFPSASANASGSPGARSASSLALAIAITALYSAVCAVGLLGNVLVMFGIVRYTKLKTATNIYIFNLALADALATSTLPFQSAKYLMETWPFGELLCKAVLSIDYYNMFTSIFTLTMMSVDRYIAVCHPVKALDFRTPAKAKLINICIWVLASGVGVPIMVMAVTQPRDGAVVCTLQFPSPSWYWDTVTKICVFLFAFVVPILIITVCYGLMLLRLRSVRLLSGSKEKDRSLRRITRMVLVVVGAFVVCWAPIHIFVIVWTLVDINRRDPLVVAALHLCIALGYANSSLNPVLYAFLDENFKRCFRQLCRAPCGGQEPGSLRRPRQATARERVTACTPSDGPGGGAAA

`NCCC[C@H](NC(=O)[C@H](Cc1ccccc1)NC(=O)[C@@H](Cc1ccccc1)NC(=O)[C@@H](N)Cc1ccc(O)cc1)C(N)=O` [BCH-2457, H-Tyr-D-Phe-Phe-Orn-NH2] (H-Y[dF]F[Orn]-NH2): the inhibitory constant (Ki) on δ-opioid receptor was found to be 2.46 µM. For the same compound, the “% of animals showing a 50% increase” value in the assay on hot plate stimulus (dose 40 mg/kg, time 60 min.) is reported as 40%. For the same compound, the “PBQ (20 min.) ED50” value with PBQ-induced writhing is 1.8 mg/kg. Moreover, on μ-opioid receptor, the affinity, expressed as Ki, was 0.00739 µM and the “Ki^δ /Ki^μ” value stood at 333.37.

As for `NCCCC[C@H](NC(=O)[C@H](Cc1ccccc1)NC(=O)[C@@H](CO)NC(=O)[C@@H](N)Cc1ccc(O)cc1)C(N)=O` [BCH-2209, H-Tyr-D-Ser-Phe-Lys-NH2] (H-Y[dS]FK-NH2), the inhibition constant Ki at δ-opioid receptor was greater than 2.53 µM; at μ-opioid receptor, 0.0241 µM. The “% of animals showing a 50% increase” value is listed as 40% with hot plate stimulus (dose 40 mg/kg, time 30 min.) and 40% in the assay with hot plate stimulus (dose 100 mg/kg, time 30 min.). For the same compound, the “PBQ (20 min.) ED50” value in the assay on PBQ-induced writhing was 2.8 mg/kg. For the same compound, on μ-opioid receptor, the “Ki^δ /Ki^μ” value was greater than 105.

Take `NCC[C@H](NC(=O)[C@H](Cc1ccccc1)NC(=O)[C@@H](CO)NC(=O)[C@@H](N)Cc1ccc(O)cc1)C(N)=O` [BCH-2469, H-Tyr-D-Ser-Phe-A2 bu-NH2] (H-Y[dS]F[Dab]-NH2): the inhibition constant Ki at δ-opioid receptor was 5.48 µM; at μ-opioid receptor it was 0.00511 µM. The “% of animals showing a 50% increase” value with hot plate stimulus (dose 40 mg/kg, time 60 min.) was found to be 90%. Also, the “PBQ (20 min.) ED50” value with PBQ-induced writhing was 1.5 mg/kg. On μ-opioid receptor, the “Ki^δ /Ki^μ” value is recorded as 1071.20.

Consider `CC(C)C[C@@H](NC(=O)[C@@H](N)Cc1ccc(O)cc1)C(=O)N[C@@H](Cc1ccccc1)C(=O)N[C@@H](CCCCN)C(N)=O` [BCH-2207, H-Tyr-D-Leu-Phe-Lys-NH2] (H-Y[dL]FK-NH2), for which the inhibitory constant (Ki) at δ-opioid receptor was greater than 2.53 µM; on μ-opioid receptor it was 0.168 µM. The “% of animals showing a 50% increase” value was determined as 20% in the assay on hot plate stimulus (dose 40 mg/kg, time 30 min.) and 0% with hot plate stimulus (dose 100 mg/kg, time 50 min.). The “Ki^δ /Ki^μ” value on μ-opioid receptor was greater than 15.

With `CC(C)C[C@H](NC(=O)[C@H](Cc1ccccc1)NC(=O)CNC(=O)[C@@H](CO)NC(=O)[C@@H](N)Cc1ccc(O)cc1)C(=O)N[C@H](C(=O)O)[C@@H](C)O` [[^3 H]DSLET, reference compound], the Kd on δ-opioid receptor (read-out: Dissociation constant of radioligand) is 0.0026 µM.

`NCC[C@H](NC(=O)[C@H](Cc1ccccc1)NC(=O)[C@@H](Cc1ccccc1)NC(=O)[C@@H](N)Cc1ccc(O)cc1)C(N)=O` [BCH-2466, H-Tyr-D-Phe-Phe-A2 bu-NH2] (H-Y[dF]F[Dab]-NH2): the inhibitory constant (Ki) is 1.42 µM on δ-opioid receptor and 0.00281 µM at μ-opioid receptor. In addition, in the assay on hot plate stimulus (dose 40 mg/kg, time 60 min.), the “% of animals showing a 50% increase” value is reported as 80%. Also, the “PBQ (20 min.) ED50” value in the assay with PBQ-induced writhing worked out at 0.2 mg/kg. Further, the “Ki^δ /Ki^μ” value on μ-opioid receptor is 507.59.

The compound `CCCC[C@@H](NC(=O)[C@@H](N)Cc1ccc(O)cc1)C(=O)N[C@@H](Cc1ccccc1)C(=O)N[C@@H](CCN)C(N)=O` [BCH-2472, H-Tyr-D-Nle-Phe-A2 bu-NH2] (H-Y[dNle]F[Dab]-NH2) yielded a Ki on δ-opioid receptor of 2.13 µM. In the assay with hot plate stimulus (dose 40 mg/kg, time 60 min.), the “% of animals showing a 50% increase” value is on record as 60%. In the assay with PBQ-induced writhing, the “PBQ (20 min.) ED50” value was determined as 0.8 mg/kg. For the same compound, at μ-opioid receptor, the affinity, expressed as Ki, was 0.0102 µM and the “Ki^δ /Ki^μ” value stood at 207.88.

As to `NCCCC[C@H](NC(=O)[C@H](Cc1ccccc1)NC(=O)[C@@H](Cc1ccccc1)NC(=O)[C@@H](N)Cc1ccc(O)cc1)C(N)=O` [BCH-2460, H-Tyr-D-Phe-Phe-Lys-NH2] (H-Y[dF]FK-NH2), the inhibition constant Ki on δ-opioid receptor worked out at 1.9 µM. Besides, the “PBQ (20 min.) ED50” value in the assay on PBQ-induced writhing is recorded as ~ 3 mg/Kg. At μ-opioid receptor, the Ki turned out to be 0.019 µM and the “Ki^δ /Ki^μ” value is 99.47.

`CC(C)C[C@@H](NC(=O)[C@@H](N)Cc1ccc(O)cc1)C(=O)N[C@@H](Cc1ccccc1)C(=O)N[C@@H](CCN)C(N)=O` [BCH-2474, H-Tyr-D-Leu-Phe-A2 bu-NH2] (H-Y[dL]F[Dab]-NH2): the Ki on δ-opioid receptor is 13.1 µM; on μ-opioid receptor, 0.0698 µM. In addition, in the assay with PBQ-induced writhing, the “PBQ (20 min.) ED50” value was greater than 10 mg/kg. Moreover, the “Ki^δ /Ki^μ” value at μ-opioid receptor turned out to be 186.98.

At δ-opioid receptor, `CC(C)[C@@H](NC(=O)[C@@H](N)Cc1ccc(O)cc1)C(=O)N[C@@H](Cc1ccccc1)C(=O)N[C@@H](CCN)C(N)=O` [BCH-2467, H-Tyr-D-Val-Phe-A2 bu-NH2] (H-Y[dV]F[Dab]-NH2) showed a Ki of 6.28 µM. In addition, in the assay on hot plate stimulus (dose 40 mg/kg, time 60 min.), the “% of animals showing a 50% increase” value was 90%. The “PBQ (20 min.) ED50” value in the assay with PBQ-induced writhing stood at 2 mg/kg. Also, at μ-opioid receptor, the affinity corresponds to a Ki of 0.00264 µM and the “Ki^δ /Ki^μ” value is 1113.55.

For `N=C(N)NCCC[C@@H](NC(=O)[C@@H](N)Cc1ccc(O)cc1)C(=O)N[C@@H](Cc1ccccc1)C(=O)N[C@@H](Cc1ccccc1)C(N)=O` [BCH-2687, H-Tyr-D-Arg-Phe-Phe-NH2] (H-Y[dR]FF-NH2), the “% of animals showing a 50% increase” value in the assay with hot plate stimulus (dose 40 mg/kg, time 60 min.) is listed as 70%.

On to `NCCC[C@H](NC(=O)[C@H](Cc1ccccc1)NC(=O)[C@@H](CCN)NC(=O)[C@@H](N)Cc1ccc(O)cc1)C(N)=O` [BCH-2580, H-Tyr-D-A2 bu-Phe-Orn-NH2] (H-Y[dDab]F[Orn]-NH2), for which the “% of animals showing a 50% increase” value in the assay with hot plate stimulus (dose 40 mg/kg, time 60 min.) stood at 80%. In the assay on PBQ-induced writhing, the “PBQ (20 min.) ED50” value came out at 1.2 mg/kg. Besides, on μ-opioid receptor, the “Ki^δ /Ki^μ” value came out at 411.98.

As for `CC(C)[C@@H](NC(=O)[C@@H](N)Cc1ccc(O)cc1)C(=O)N[C@@H](Cc1ccccc1)C(=O)N[C@@H](CCCN)C(N)=O` [BCH-2458, H-Tyr-D-Val-Phe-Orn-NH2] (H-Y[dV]F[Orn]-NH2), the figures for the inhibition constant (Ki) at δ-opioid receptor and at μ-opioid receptor were 8.78 µM and 0.0133 µM, respectively. The “% of animals showing a 50% increase” value in the assay on hot plate stimulus (dose 40 mg/kg, time 30 min.) turned out to be 30%; in the assay with hot plate stimulus (dose 100 mg/kg, time 60 min.), 55%. In the assay on PBQ-induced writhing, the “PBQ (20 min.) ED50” value was 1.0 mg/kg. In addition, the “Ki^δ /Ki^μ” value on μ-opioid receptor stood at 658.27.

`CCC[C@@H](NC(=O)[C@@H](N)Cc1ccc(O)cc1)C(=O)N[C@@H](Cc1ccccc1)C(=O)N[C@@H](CCN)C(N)=O` [BCH-2471, H-Tyr-D-Nva-Phe-A2 bu-NH2] (H-Y[dNva]F[Dab]-NH2): on δ-opioid receptor, the Ki is 0.441 µM. Also, in the assay with hot plate stimulus (dose 40 mg/kg, time 60 min.), the “% of animals showing a 50% increase” value came out at 100%. The “PBQ (20 min.) ED50” value in the assay with PBQ-induced writhing is 0.2 mg/kg. In addition, on μ-opioid receptor, the inhibition constant Ki was 0.00056 µM and the “Ki^δ /Ki^μ” value was 790.51.

For the compound `N=C(N)NCCC[C@H](NC(=O)[C@H](Cc1ccccc1)NC(=O)[C@@H](CCCNC(=N)N)NC(=O)[C@@H](N)Cc1ccc(O)cc1)C(N)=O` [BCH-1766, H-Tyr-D-Arg-Phe-Arg-NH2] (H-Y[dR]FR-NH2), the Ki on δ-opioid receptor was determined as 12 µM; on μ-opioid receptor it was 0.0988 µM. Moreover, the “Ki^δ /Ki^μ” value on μ-opioid receptor stood at 121.

The compound `CC[C@@H](C)[C@@H](NC(=O)[C@@H](N)Cc1ccc(O)cc1)C(=O)N[C@@H](Cc1ccccc1)C(=O)N[C@@H](CCN)C(N)=O` [BCH-2468, H-Tyr-D-Ile-Phe-A2 bu-NH2] (H-Y[dI]F[Dab]-NH2) displayed a Ki on δ-opioid receptor of 2.53 µM. Also, in the assay on PBQ-induced writhing, the “PBQ (20 min.) ED50” value lay within 3 to 10 mg/kg. Also, at μ-opioid receptor, the Ki is 0.0097 µM and the “Ki^δ /Ki^μ” value is given as 260.61.

At δ-opioid receptor, `CC(C)C[C@@H](NC(=O)[C@@H](N)Cc1ccc(O)cc1)C(=O)N[C@@H](Cc1ccccc1)C(=O)N[C@@H](CCCN)C(N)=O` [BCH-2459, H-Tyr-D-Leu-Phe-Orn-NH2] (H-Y[dL]F[Orn]-NH2) showed an inhibitory constant (Ki) of 18.6 µM. Besides, at μ-opioid receptor, the inhibitory constant (Ki) turned out to be 0.0775 µM and the “Ki^δ /Ki^μ” value amounted to 240.10.

Regarding `N=C(N)NCCC[C@@H](NC(=O)[C@@H](N)Cc1ccc(O)cc1)C(=O)N[C@@H](Cc1ccccc1)C(=O)N[C@@H](CO)C(N)=O` [BCH-2688, H-Tyr-D-Arg-Phe-Ser-NH2] (H-Y[dR]FS-NH2), the “% of animals showing a 50% increase” value in the assay on hot plate stimulus (dose 40 mg/kg, time 60 min.) amounted to 100%.
